Source: patent US5700830A, “Use of nitric oxide-releasing agents for reducing metastasis risk” (The United States of America as represented by the …, priority 1994, dated 1997)
Where a name gives a salt, the structure may show the parent alone.

How the values were obtained:
[1] = test system: RPMI 1846 melanotic melanoma cells adhering to rat mesenteric postcapillary venules; assay: adhesion of melanoma tumor cells to isolated postcapillary venules; format: cell-based, Syrian hamster (tumor cells); Sprague-Dawley rat (vessels); details: 1 mM DETA/NO for 30 min, FIG. 1
Protocol: RPMI 1846, a melanotic melanoma of a Syrian hamster, was obtained from the American Type Culture Collection, Rockville, Md., and grown in McCoy's 5A medium (GIBCO, Grand Island, N.Y.) supplemented with 20% fetal bovine serum (GIBCO, Grand Island, N.Y.) at 37° C. in a humidified 5% CO2 atmosphere. […]
A segment of bowel and attached mesentery was excised and placed in a dissecting chamber containing ice-cold, pH 7.4 PSS (same as APSS but without added serum). […] A television camera mounted on the microscope was used to project the image onto a television monitor and the images were recorded using a videocassette recorder. […]
After a 30-min stabilization period, the vessel was perfused with tumor cell suspension. […] The number of cells sitting on the microvessel was observed and recorded. […] Five minutes later, the number of tumor cells remaining adherent to the vessel wall was counted and recorded. The percentage of adherent cells was calculated by dividing the number of tumor cells remaining adherent to the vessel wall after flow was resumed for 5 minutes by the total number of cells setting on the vessel wall when flow was interrupted. […]

[2] = via exhaustion of the relevant enzyme/cofactor system; cited from earlier work
[3] = decomposition half-life and nitric oxide release in aqueous buffer; format: physicochemical; details: pH 7 and 25° C.; for half-life: aqueous buffer
Protocol: The resulting gel was treated with a few drops of methanol until a homogeneous solution was obtained. The solution was transferred into a micro-Parr bottle and bubbled with nitrogen for 5 min, followed by exposure to 40 psi of NO for 72 h.
The system was degassed and charged with 40 psi of nitric oxide.
The system was evacuated, charged with 40 psi of nitric oxide and kept at 25° C. for 48 h. The white crystalline product was collected by filtration and washed with cold methanol as well as with copious amounts of ether. […] This measurement was based on the loss of the 252-nm chromophore in the ultraviolet spectrum.

[4] = test system: DNA synthesis; details: cited from earlier work
[5] = cited from earlier work

Compound: NCCN(CCN)[N+]([O-])=NO [DETA/NO]
- effect on LPS-enhanced tumor cell adhesion to postcapillary venules ([1]; LPS-treated venules): completely blocked the enhancing effect of LPS on tumor cell adhesion
- effect on tumor cell adhesion to untreated venules ([1]; untreated venules, P<0.05): decreased tumor cell adhesion to untreated venules

Compound: O=[N+]([O-])OCC(CO[N+](=O)[O-])O[N+](=O)[O-] [glyceryl trinitrate]
- tolerance [2]: tolerance to glyceryl trinitrate can develop

Compound: CCOC(=O)N1CCN([N+]([O-])=NO)CC1 [1-(4-carbethoxypiperazin-1-yl)-1-oxo-2-hydroxydiazene, sodium salt]
- half-life [3]: 5 min

Compound: CC(=O)N[C@H](C(=O)O)C(C)(C)SN=O (racemic) [S-nitroso-N-acetylpenicillamine]
- inhibition of DNA synthesis [4]: effective at inhibiting DNA synthesis

Compound: CSCC[C@H](NC(C)=O)C(=O)N1CCN([N+]([O-])=NO)CC1 [Example V, 1-[4-(N-acetyl-L-methionyl)piperazin-1-yl]-1-oxo-2-hydroxydiazene, sodium salt]
- half-life [3]: 6.9 min
- NO produced per mole of test agent [3]: 1.72 moles of NO per mole of test agent

Compound: Nitric oxide
- solubility in aqueous media [5]: limited solubility in aqueous media
